Structures are written as SMILES. ≈ marks a conversion by molar mass, not a printed value. Calls of active or inactive are those of the source. The rule behind the calls is not given here.

Four compounds from ChEMBL document CHEMBL1159245, “Antineoplastic agents, 326. The stereochemistry of bastadins 8, 10, and 12 from the Bismarck archipelago marine sponge Ianthella basta” (J Nat Prod, 1995) can be followed below.

For one data set, the system named is Bacillus subtilis. The experiment in a line: Antibacterial activity against Bacillus subtilis. The format is functional.
Another data set relates to Candida albicans. Kind of data set: Antifungal activity against Candida albicans ATCC 90028 at […] after 42 hrs. The format is functional, organism-based.
Another data set deals with KM-20L2. The experiment in a line: Growth inhibition of human KM20L2 cells. The format is functional. Conditions: read-out: ED50 (the source's name).
The test system of the next data set is SK-MEL-5. The experiment in a line: Growth inhibition of human SK-MEL-5 cells. The format is functional. The note with it: read-out: ED50 (the source's name).
The next data set deals with Escherichia coli. The experiment in a line: Antibacterial activity against Escherichia coli ATCC 25922 at […] after 16 hrs. Format: functional, organism-based.
The test system of a further data set is P388. The experiment in a line: Growth inhibition of mouse P388 cells. Format: functional. The note with it: read-out: ED50 (the source's name).
For a further data set, the system named is Cryptococcus neoformans. The experiment in a line: Antifungal activity against Cryptococcus neoformans ATCC 90112 at […] after 42 hrs. The format is functional, organism-based.
Another data set relates to A498. Kind of data set: Growth inhibition of human A498 cells. The format is functional. Conditions: read-out: ED50 (the source's name).
A short description of data set [1]: Growth inhibition of human SF295 cells. Format: cell-based, SF-295. Conditions: read-out: ED50 (the source's name).
In another data set the test system is Neisseria gonorrhoeae. Kind of data set: Antibacterial activity against Neisseria gonorrhoeae ATCC 49226 at […] after 16 hrs. The format is functional, organism-based.
A further data set concerns Enterococcus faecalis. Kind of data set: Antibacterial activity against Enterococcus faecalis ATCC 29212 assessed per 6 mm disk after 16 hrs. The format is functional.
For a further data set, the system named is NCI-H460. Kind of data set: Growth inhibition of human NCI-H460 cells. The format is functional. Conditions: read-out: ED50 (the source's name).
Another data set relates to OVCAR-3. Kind of data set: Growth inhibition of human OVCAR-3 cells. Format: functional. The note with it: read-out: ED50 (the source's name).
In a further data set the test system is Staphylococcus aureus. The experiment in a line: Antibacterial activity against Staphylococcus aureus ATCC 29213 assessed per 6 mm disk after 16 hrs. The format is functional.

Regarding `O=C1NCCc2ccc(c(Br)c2)Oc2cc(ccc2O)CCNC(=O)/C(=N/O)Cc2cc(Br)c(O)c(c2)Oc2c(Br)cc(cc2Br)C/C1=N\O` [BASTADIN 13], the MIC in the data set on Bacillus subtilis is 6 µg/mL (≈ 6.38 µM).

Regarding `O=C1NCCc2cc(Br)c(O)c(c2)Oc2ccc(cc2Br)[C@H](O)CNC(=O)/C(=N/O)Cc2cc(Br)c(O)c(c2)Oc2ccc(cc2Br)C/C1=N\O` [BASTADIN 10], the outcome with Candida albicans, in the data set with Escherichia coli, with Cryptococcus neoformans and in the data set on Neisseria gonorrhoeae was inactive. For the same compound, the EC50 in the data set with KM-20L2 was 2 µg/mL (≈ 2.09 µM); in the data set with SK-MEL-5 it was 3.7 µg/mL (≈ 3.87 µM); with P388, > 10 µg/mL; with A498 it was 4.5 µg/mL (≈ 4.71 µM); with NCI-H460 it was 3.4 µg/mL (≈ 3.56 µM); in the data set on OVCAR-3, 2.9 µg/mL (≈ 3.03 µM). For the same compound, the GI50 in data set [1] came to 3.2 µg/mL (≈ 3.35 µM). Moreover, the values for the MIC with Enterococcus faecalis and in the data set on Staphylococcus aureus were 6.25 µg and 1.56 µg, respectively.

For `O=C1NCCc2cc(Br)c(O)c(c2)Oc2ccc(cc2Br)[C@H](O)CNC(=O)/C(=N/O)Cc2cc(Br)c(O)c(c2)Oc2c(Br)cc(cc2Br)C/C1=N\O` [BASTADIN 8], the result in the data set on Candida albicans, in the data set with Escherichia coli, in the data set with Cryptococcus neoformans and in the data set on Neisseria gonorrhoeae was inactive. For the same compound, the EC50 in the data set with KM-20L2 was > 10 µg/mL; in the data set on SK-MEL-5, 9.9 µg/mL (≈ 9.56 µM); in the data set with P388 it was 22.6 µg/mL (≈ 21.8 µM); in the data set on A498 it was 7 µg/mL (≈ 6.76 µM); in the data set with NCI-H460, > 10 µg/mL; with OVCAR-3, > 10 µg/mL. Also, the GI50 in data set [1] is > 10 µg/mL. The results for the MIC in the data set with Enterococcus faecalis and in the data set with Staphylococcus aureus were <50 µg and 0.195 µg, respectively.

As to `O=C1NCCc2cc(Br)c(O)c(c2)Oc2c(Br)cc(cc2Br)[C@H](O)CNC(=O)/C(=N/O)Cc2cc(Br)c(O)c(c2)Oc2ccc(cc2Br)C/C1=N\O` [BASTADIN 12], the outcome in the data set with Candida albicans, in the data set with Escherichia coli, in the data set on Cryptococcus neoformans and with Neisseria gonorrhoeae was inactive. The EC50 turned out to be 2.1 µg/mL (≈ 2.03 µM) with KM-20L2; 2.2 µg/mL (≈ 2.13 µM) with SK-MEL-5; 9.1 µg/mL (≈ 8.79 µM) in the data set with P388; 2.1 µg/mL (≈ 2.03 µM) with A498; 2.3 µg/mL (≈ 2.22 µM) with NCI-H460; 2 µg/mL (≈ 1.93 µM) in the data set with OVCAR-3. Further, the GI50 in [1] amounted to 2.4 µg/mL (≈ 2.32 µM). Besides, the results for the MIC against Enterococcus faecalis and against Staphylococcus aureus were 50 µg and 6.25 µg, respectively.
